19 compounds from US8883782B2, “Spiro-tetracyclic ring compounds as beta-secretase modulators and methods of use” (Amgen Inc., priority 2010, dated 2014) can be followed below.

The test system of assay [1] is Aβ40 in conditioned medium of cells stably expressing Amyloid Precursor Protein (APP). Kind of assay: In vitro BACE cell-based assay (Aβ40 in conditioned medium, sandwich ELISA). The conditions noted are these: for pIC50: read-out: HEK cell assay; for IC50: HEK293, read-out: HEK cell assay (uM), average IC50, HEK cells. A digest of the protocol:
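Conditioned medium from stably APP-expressing cells treated with compound dose series is assayed for Aβ40 by sandwich ELISA with time-resolved fluorescence detection. IC50 is calculated from percent inhibition of Aβ40 against compound concentration.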
In general terms: An ELISA detects its analyte on a solid surface through an enzyme-linked reagent.

In assay [2] the target is Beta Secretase enzyme (BACE) (Homo sapiens, UniProt P56817). Put plainly: In vitro enzymatic BACE FRET (fluorescence resonance energy transfer) assay. In kind it is biochemical. Particulars: for pIC50: average IC50, enzyme assay, read-out: BACE 1 FRET assay; for IC50: BACE 1 FRET assay (uM). A digest of the protocol: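 Acetate buffer (0.05 M, pH 4.2), 10% DMSO final, 100 uM nonionic detergent genapol. Substrate addition (50 nM FRET peptide) initiates; one-hour incubation; Tris raises pH to neutrality before fluorescence measurement.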

Setting [3] is: Homo sapiens, HEK293, average IC50.
Where [4] appears, read: Homo sapiens, HEK293, average IC50, HEK cells.

pIC50: −log10 of the molar value. Read-outs that look alike come from different tables or passages of the source.

Sequence of Beta Secretase enzyme (BACE) (P56817 46-501, species assumed): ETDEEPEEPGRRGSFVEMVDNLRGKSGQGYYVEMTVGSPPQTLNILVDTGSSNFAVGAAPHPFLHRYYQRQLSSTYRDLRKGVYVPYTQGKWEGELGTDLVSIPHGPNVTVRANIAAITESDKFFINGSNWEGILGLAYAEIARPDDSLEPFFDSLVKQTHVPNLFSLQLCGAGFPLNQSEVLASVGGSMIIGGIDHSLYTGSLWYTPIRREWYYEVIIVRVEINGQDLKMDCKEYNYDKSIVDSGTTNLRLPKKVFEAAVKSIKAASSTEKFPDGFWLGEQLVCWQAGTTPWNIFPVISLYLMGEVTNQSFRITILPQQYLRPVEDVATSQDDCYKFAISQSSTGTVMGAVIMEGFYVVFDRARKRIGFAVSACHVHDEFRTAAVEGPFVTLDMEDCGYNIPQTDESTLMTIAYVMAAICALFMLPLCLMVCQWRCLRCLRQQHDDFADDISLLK

For the compound `NC1=N[C@@]2(CO1)c1cc(C3=CCOCC3)cc(F)c1Oc1ccc(-c3cncnc3)c(F)c12` [Example 1041, (4S)-7′-(3,6-dihydro-2H-pyran-4-yl)-1′,5′-difluoro-2′-(5-pyrimidinyl)spiro[1,3-oxazole-4,9′-xanthen]-2-amine], the pIC50 in assay [1] (setting [3]) is at most 5.00; in assay [2] it was 5.44.
On to `NC1=N[C@@]2(CO1)c1cc(-c3cncc(N4CCOCC4)c3)ccc1Oc1c(F)cc(N3CCOCC3)cc12` [Example 209, (4S)-4′-fluoro-2′-(4-morpholinyl)-7′-(5-(4-morpholinyl)-3-pyridinyl)spiro[1,3-oxazole-4,9′-xanthen]-2-amine], for which the figures for the pIC50 in assay [1] (setting [3]) and in assay [2] were 6.68 and 6.60, respectively.
Turning to `NC1=N[C@@]2(CO1)c1cc(-c3cccnc3F)ccc1Oc1cnc(N3C[C@@H]4C[C@H]3CO4)cc12` [Example 891, (5S)-7-(2-fluoro-3-pyridinyl)-3-((1S,4S)-2-oxa-5-azabicyclo[2.2.1]hept-5-yl)spiro[chromeno[2,3-c]pyridine-5,4′-[1,3]oxazol]-2′-amine], the pIC50 in assay [1] (setting [4]) was 7.21; in assay [2], 8.72.
In the case of `CC(C)(C)/C=C/c1ccc2c(c1)[C@]1(COC(N)=N1)c1cc(-c3cncnc3)c(F)cc1O2` [Example 496, (4R)-7′-((1E)-3,3-dimethyl-1-buten-1-yl)-3′-fluoro-2′-(5-pyrimidinyl)spiro[1,3-oxazole-4,9′-xanthen]-2-amine], the values for the IC50 in assay [1] (Homo sapiens) and in assay [2] were 0.0311 µM and 0.0014 µM, respectively.
As to `CC1(C#Cc2ccc3c(c2)[C@@]2(COC(N)=N2)c2cc(C4=CCOCC4)ncc2O3)COC1` [Example 160, (5S)-3-(3,6-dihydro-2H-pyran-4-yl)-7-((3-methyl-3-oxetanyl)ethynyl)spiro[chromeno[2,3-c]pyridine-5,4′-[1,3]oxazol]-2′-amine], the pIC50 was 7.04 in assay [1] (setting [3]) and 7.66 in assay [2].
As to `COCC1SC(N)=N[C@@]12c1cc(-c3cccnc3F)ccc1Oc1cnc(Cl)cc12` (stereo partly drawn) [Example 1088, (5R)-3-chloro-7-(2-fluoro-3-pyridinyl)-5′-(methoxymethyl)spiro[chromeno[2,3-c]pyridine-5,4′-[1,3]thiazol]-2′-amine, (5S)-3-chloro-7-(2-fluoro-3-pyridinyl)-5′-(methoxymethyl)spiro[chromeno[2,3-c]pyridine-5,4′-[1,3]thiazol]-2′-amine], the pIC50 in assay [1] is 5.51; in assay [2] it was 6.94.
On to `N#Cc1cccc(-c2ccc3c(c2)[C@@]2(CSC(N)=N2)c2cc(C4=CCOCC4)cnc2O3)c1F` [Example 763, 3-((5S)-2′-amino-3-(3,6-dihydro-2H-pyran-4-yl)spiro[chromeno[2,3-b]pyridine-5,4′-[1,3]thiazol]-7-yl)-2-fluorobenzonitrile], for which the pIC50 was 7.77 in assay [1] (setting [3]) and 8.68 in assay [2].
Take `CC#Cc1cncc(-c2ccc3c(c2)[C@@]2(COC(N)=N2)c2cc(-c4ccncc4)nc(OC)c2O3)c1` [Example 837, (5S)-1-methoxy-7-(5-(1-propyn-1-yl)-3-pyridinyl)-3-(4-pyridinyl)spiro[chromeno[2,3-c]pyridine-5,4′-[1,3]oxazol]-2′-amine]: the values for the pIC50 in assay [1] (setting [3]) and in assay [2] were 8.05 and 9.15, respectively.
For “(4S)-4′-fluoro-7′-(2-fluoro-3-pyridinyl)-2′-((3R)-3-methyl-1-pyrrolidinyl)spiro[1,3-oxazole-4,9′-xanthen]-2-amine, (4S)-4′-fluoro-7′-(2-fluoro-3-pyridinyl)-2′-((3S)-3-methyl-1-pyrrolidinyl)spiro[1,3-oxazole-4,9′-xanthen]-2-amine [Example 1055]”, the values for the pIC50 in assay [1] (average IC50) and in assay [2] were 7.48 and 9.40, respectively.
Consider `CC(C)(O)C#Cc1c(OCC2(C)COC2)ccc2c1[C@]1(COC(N)=N1)c1cc(-c3cccnc3)ccc1O2` [Example 518, 4-((4S)-2-amino-2′-((3-methyl-3-oxetanyl)methoxy)-7′-(3-pyridinyl)spiro[1,3-oxazole-4,9′-xanthen]-1′-yl)-2-methyl-3-butyn-2-ol], for which the pIC50 in assay [1] (setting [4]) was 7.19; in assay [2] it was 7.12.
As to `CC1(C#Cc2cnc3c(c2)[C@]2(COC(N)=N2)c2cc(-c4ccc(F)nc4)ccc2O3)COC1` [Example 167, (5S)-7-(6-fluoro-3-pyridinyl)-3-((3-methyl-3-oxetanyl)ethynyl)spiro[chromeno[2,3-b]pyridine-5,4′-[1,3]oxazol]-2′-amine], the figures for the pIC50 in assay [1] (setting [3]) and in assay [2] were 7.86 and 8.59, respectively.
As to `NC1=N[C@]2(CO1)c1cc(C3=CCOCC3)cc(F)c1Oc1ccc(-c3cncnc3)c(F)c12` [Example 1042, (4R)-7′-(3,6-dihydro-2H-pyran-4-yl)-1′,5′-difluoro-2′-(5-pyrimidinyl)spiro[1,3-oxazole-4,9′-xanthen]-2-amine], the pIC50 in assay [1] (setting [3]) was 6.93; in assay [2] it was 7.87.
On to `NC1=N[C@@]2(CS1)c1cc(-c3cccnc3F)ccc1Oc1cnc(C3=CCOCC3)cc12` [Example 590, (5S)-3-(3,6-dihydro-2H-pyran-4-yl)-7-(2-fluoro-3-pyridinyl)spiro[chromeno[2,3-c]pyridine-5,4′-[1,3]thiazol]-2′-amine], for which the IC50 (commonly the midpoint of a concentration-inhibition curve) in assay [1] (Homo sapiens) was determined as 0.0093 µM; in assay [2] it was 0.0007 µM.
With `Cc1cc(-c2cc(F)c3c(c2)[C@]2(COC(N)=N2)c2cc(OCC4(C)COC4)ccc2O3)ccn1` [Example 439, (4S)-4′-fluoro-7′-((3-methyl-3-oxetanyl)methoxy)-2′-(2-methyl-4-pyridinyl)spiro[1,3-oxazole-4,9′-xanthen]-2-amine], the pIC50 in assay [1] (setting [4]) was 6.81; in assay [2], 6.73.
Turning to `CC1(C#Cc2cc3c(nc2F)Oc2ccc(-c4cncc(F)c4)cc2[C@]32COC(N)=N2)COC1` [Example 906, (5R)-2-fluoro-7-(5-fluoro-3-pyridinyl)-3-((3-methyl-3-oxetanyl)ethynyl)spiro[chromeno[2,3-b]pyridine-5,4′-[1,3]oxazol]-2′-amine], the pIC50 was 5.83 in assay [1] (setting [4]) and 7.27 in assay [2].
With `Cc1ccncc1-c1ccc2c(c1)[C@@]1(COC(N)=N1)c1cc(C3=CCOCC3)ncc1O2` [Example 654, (5S)-3-(3,6-dihydro-2H-pyran-4-yl)-7-(4-methyl-3-pyridinyl)spiro[chromeno[2,3-c]pyridine-5,4′-[1,3]oxazol]-2′-amine], the pIC50 in assay [1] (setting [4]) was 7.89; in assay [2], 8.21.
As for `COc1cc(F)c2c(c1)[C@]1(COC(N)=N1)c1cc(-c3cncc(C#CCO)c3)ccc1O2` [Example 820, 3-(5-((4S)-2-amino-5′-fluoro-7′-methoxyspiro[1,3-oxazole-4,9′-xanthen]-2′-yl)-3-pyridinyl)-2-propyn-1-ol], the pIC50 in assay [1] (setting [3]) was 7.68; in assay [2] it was 8.96.
As for `CC(C)(C)C#Cc1cc2c(cn1)Oc1ccc(-c3cccnc3F)cc1C21CSC(N)=N1` (centres unmarked) [Example 637, 3-(3,3-dimethyl-1-butyn-1-yl)-7-(2-fluoro-3-pyridinyl)spiro[chromeno[2,3-c]pyridine-5,4′-[1,3]thiazol]-2′-amine], the pIC50 in assay [1] (setting [4]) was 7.21; in assay [2], 8.68.
Turning to `COC(C)(C)C#Cc1cnc2c(c1)[C@]1(COC(N)=N1)c1cc(-c3cncnc3)c(F)cc1O2` [Example 643, (5S)-8-fluoro-3-(3-methoxy-3-methyl-1-butyn-1-yl)-7-(5-pyrimidinyl)spiro[chromeno[2,3-b]pyridine-5,4′-[1,3]oxazol]-2′-amine], the pIC50 in assay [1] (setting [4]) was 7.82; in assay [2], 8.96.
